The text below walks through data of patent US4033992A, “Novel compounds of the 11-deoxyprostaglandin E3, R3α, and F3β series” (priority 1975, dated 1977).

In one assay the test system is gastric acid secretion. Nature of the assay: Gastric acid secretion inhibitory action, modified "Shay rat" procedure. In kind it is in vivo, rats (male, CFE strain). The settings on record: 3 hours. As to the method: The novel compounds of the present invention (and those wherein R2 is hydroxy when X is keto and Y is ethylene) are effective inhibitors of gastric acid secretion and of ulcer development in experimental animals, and thus are potentially valuable as agents for the control of gastric acid secretion and of gastric erosion and as anti-ulcer agents. Gastric acid secretion inhibitory action was measured by the "Shay rat" procedure with some modifications as follows.
The rats (male, CFE strain) were starved for 48 hours (water was given ad libitum) to permit evacuation of stomach contents. On the morning of the experiment, under ether anesthesia, the abdominal region was shaved and a midline incision (1-1 1/2") was made with a scapel. With the help of a closed curved hemostate the duodenum was picked up. Upon getting the duodenum into view, fingers were used to pull the stomach through the opening, the stomach was then gently manipulated with fingers to rid the stomach of air and residual matter which were pushed through the pylorus. Two-5 inch sutures were drawn under the pyloric-duodenal juncture. A ligature, at the juncture, was formed with one of the threads. The second ligature was also formed but not tightened.
The test compound or the vehicle, usually 1 ml./100 g. body weight, were injected into the duodenum as close as possible to the first ligature. […]
The abdominal cavity was exposed by cutting with scissors and the esophagus close to the stomach was clamped off with a hemostat, the stomach was removed by cutting above the hemostat (the esophagus was cut) and between the two sutures. […] The supernatant was collected, volume measured and recorded, 2 drops of a phenolphthalein indicator (1% in 95% ethanol) were added and the solution was titrated with 0.02 N NaOH (or with 0.04 N NaOH when large volumes of stomach contents were encountered) to pH 8.4 (because of usual coloring of the stomach contents, phenolphthalein was only used to permit visual indication that the end point was near) and the amount of acid present was calculated. […]

The subject of another assay is ulcers. Nature of the assay: Indomethacin-induced ulcer assay (anti-ulcer). The settings on record: Indomethacin 20 mg./kg. s.c., score 0-4. In kind it is in vivo, Rats. The method, then: Another assay useful for determining potential anti-ulcer agents is carried out in the following manner.
Rats were starved for 48 hours (water was given as libitum). Indomethacin (20 mg./kg. of body weight) was administered by the subcutaneous route and one-half the dose of the test compound was administered by gavage at the same time. After three hours, the second half of the test compound was administered also by gavage. Five hours after the administration of Indomethacin the animals were decapitated and the stomachs removed. The stomachs were washed with distilled water, blotted on gauze, cut along the larger curvature, and the contents rinsed with distilled water. The stomachs were spread out, pinned on a cork and visualized under magnifying glass for ulcers. The critera for scoring of ulcers was as previously reported. [Abdel-Galil et al. Brit. J. Pharmac. Chemotherapy 33:1-14 (1968)].
1-- Petechial hemmorrhage or pin point ulcers
3-- Many ulcers, a few large
4-- Many ulcers, mainly large
Control animals treated with Indomethacin but not test compound consistently give scores of about 2.5-3.5. Control animals treated with neither Indomethacin nor test compound give scores of about 0.5-0.8. Compounds diminishing the control ulcer score by 0.5 unit or more are considered to be active

Assay [1] concerns bronchospasms elicited by intravenous injections of 5-hydroxytryptamine, histamine, or acetylchlorine. Nature of the assay: Bronchodilator activity by the Konzett procedure. In kind it is in vivo, guinea pigs. The settings on record: Cavia porcellus, three logarithmic cumulative intravenous doses. The method, then:
Bronchodilator activity was determined in guinea pigs against bronchospasms elicited by intravenous injections of 5-hydroxytryptamine, histamine, or acetylchlorine by the Konzett procedure. [See J. Lulling, P. Lievens, F. El Sayed and J. Prignot, Arzneimittel-Forschung, 18,995 (1968).] This activity is expressed as an ED50 determined from the results obtained with three logarithmic cumulative intravenous doses.

Where [2] appears, read: intraduodenal dose 50 mg./kg. of body weight.

As for `CCCCC[C@H](O)/C=C/[C@H]1CC[C@H](O)[C@@H]1C/C=C\CCCC(=O)O` [l-11-deoxyprostaglandin F2 α, 11-deoxyprostaglandin F2 α], in the assay on gastric acid secretion (setting [2]), the “Percent Inhibition (gastric acid secretion)” value was determined as 98%. The “Score, Treated Animals (ulcer score)” value with ulcers (total oral dose 50 mg./kg. of body weight, Controls 2.8) worked out at 1.3.

One may read the ED50 as the dose that gives a 50% effect, or the effect in half of the subjects. Read a high ED50 as weaker potency. For the compound `CCCCC[C@H](O)/C=C/[C@H]1CCC(=O)[C@@H]1C/C=C\CCCC(=O)O` [l-11-deoxyprostaglandin E2, 11-deoxyprostaglandin E2], the “Percent Inhibition (gastric acid secretion)” value came out at 42% in the assay with gastric acid secretion (intraduodenal dose 12.5 mg./kg. of body weight) and 97% in the assay on gastric acid secretion (setting [2]). Moreover, the “Score, Treated Animals (ulcer score)” value in the assay with ulcers (total oral dose 12.5 mg./kg. of body weight, Controls 2.7) came out at 1.2. The values for the median effective dose (ED50) in assay [1] (spasmogenic agent 5-hydroxytryptamine), in assay [1] (spasmogenic agent acetylcholine) and in assay [1] (spasmogenic agent histamine) were 5.2 µg/kg, 10 µg/kg and 5.2 µg/kg, respectively.
